Results as given in patent publication US20240246954A1, “COMPOSITIONS AND METHODS FOR INHIBITING KRAS” (TheRas, Inc., priority 2021, published 2024).
pIC50: −log10 of the molar value.

Key:
[1] = molecular target: T1, Avi-KRAS G12D/Q25A (1-169) GppNHp/3×FLAG-PI3KCA (157-299) (Homo sapiens, UniProt P01116, G12D/Q25A); test: HTRF PI3KCA-KRAS G12D/Q25A-GppNHp disruption assay; format: biochemical; conditions: 1 h incubation
T1 construct: Avi-KRAS G12D/Q25A (1-169) GppNHp
Method: (§1) The HTRF assay employed the following protocol:
(§2) Compounds were dispensed in assay plate (384-well, Grenier Bione #784075) using Echo (model 555) with dose response settings: 200 nL final volume, titration from 100 μM as a 10-point dilution series. Protein mix was prepared in assay buffer, and dispensed on plates, 10 μL per well, then incubated for 1 h at room temperature, with 700 rpm shaking. Reagents mix was prepared and dispensed on plates, 10 μL per well, then incubated for 1 h at room temperature, with 700 rpm shaking.
(§3) Plates were analyzed on an Envision plate reader using the following setting: Excitation 320 nm, Bandwidth […]; Emission 615 nm, Bandwidth […], Gain 100%, Flashes 100, Lag 60 μs. Data was reported as percentage of activity, with DMSO as 100%. Data was plotted and analyzed using Prism 8.

[2] = molecular target: T2, Avi-KRAS G12D (1-169) GppNHp/RAF1 RBD-3×FLAG (52-151) (Homo sapiens, UniProt P01116, G12D); test: HTRF Raf1-KRAS G12D-GppNHp disruption assay; format: biochemical; conditions: 1 h incubation
T2 construct: Avi-KRAS G12D (1-169) GppNHp
Method: as §1, §2, §3

T2 sequence (P01116 1-169 isoform P01116-2 G12D limits assumed): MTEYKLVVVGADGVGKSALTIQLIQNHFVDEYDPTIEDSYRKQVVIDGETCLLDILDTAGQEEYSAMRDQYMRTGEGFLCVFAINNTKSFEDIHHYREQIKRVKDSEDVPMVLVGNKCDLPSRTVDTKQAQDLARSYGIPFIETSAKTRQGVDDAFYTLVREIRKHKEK
T1 sequence (P01116 1-169 isoform P01116-2 G12D/Q25A limits assumed): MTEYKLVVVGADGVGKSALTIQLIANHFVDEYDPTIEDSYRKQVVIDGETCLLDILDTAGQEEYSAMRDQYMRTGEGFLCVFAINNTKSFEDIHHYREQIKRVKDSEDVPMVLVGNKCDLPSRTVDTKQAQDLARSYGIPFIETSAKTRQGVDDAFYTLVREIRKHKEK

Row | Compound | pIC50 [1] | pIC50 [2]
1 | Fc1c(-c2ccc(F)c3scnc23)c(C(F)(F)F)cc2c(N3CC4CCC(C3)N4)nc(OCC34CCCN3CCC4)nc12 [Compound 375] | 4.52 to 5.00 | 4.52 to 5.00
2 | CN1CCC(c2nc(NCCN)c3cc(Cl)c(-c4ccc(F)c5sc(N)nc45)c(F)c3n2)CC1 [Compound 103] | 4.52 to 5.00 | 4.52 to 5.00
3 | CN1CCC[C@H]1COc1nc(NCCN)c2cc(Cl)c(-c3ccc4nc(N)sc4c3)c(F)c2n1 [Compound 109] | 4.52 to 5.00 | 4.52 to 5.00
4 | CN(c1nc(OC[C@@H]2CC(F)(F)CN2C)nc2c(F)c(-c3ccc(F)c4sc(N)nc34)c(C(F)(F)F)cc12)C1CNC1 [Compound 204] | 4.52 to 5.00 | 4.52 to 5.00
5 | Nc1nc2c(-c3c(OC(F)F)cc4c(N5CCNCC5)nc(OCC56CCCN5CCC6)nc4c3F)ccc(F)c2s1 [Compound 234, 4-(6-(difluoromethoxy)-8-fluoro-4-(piperazin-1-yl)-2-((tetrahydro-1H-pyrrolizin-7a(5H)-yl)methoxy)quinazolin-7-yl)-7-fluorobenzo[d]thiazol-2-amine] | 5.00 to 6.00 | 5.00 to 6.00
6 | CN1CCC[C@H]1COc1nc(N2CCNCC2)c2cc(-c3ccccc3)c(-c3ccc(F)c4sc(N)nc34)c(F)c2n1 [Compound 145] | 4.52 to 5.00 | 4.52 to 5.00
7 | CN1CCC[C@H]1COc1nc(N2CC3(CCN3)C2)c2cc(Cl)c(-c3ccc(F)c4sc(N)nc34)c(F)c2n1 [Compound 96] | 4.52 to 5.00 | 4.52 to 5.00
8 | CN1CCC[C@H]1COc1nc(NCCN)c2cc(C(F)(F)F)c(-c3ccc(F)c4sc(N)nc34)c(F)c2n1 [Compound 149] | 5.00 to 6.00 | 5.00 to 6.00
9 | CNCCNc1nc(OC[C@@H]2CCCN2C)nc2c(F)c(-c3ccc(F)c4sc(N)nc34)c(Cl)cc12 [Compound 70] | 4.52 to 5.00 | 5.00 to 6.00
10 | C[C@@H]1CN(c2nc(OC[C@@]34CCCN3C[C@@H](F)C4)nc3c(F)c(-c4ccc(F)c5sc(N)nc45)c(C(F)(F)F)cc23)C[C@H](C)N1 [Compound 229] | 4.52 to 5.00 | 4.52 to 5.00
11 | Nc1nc2c(-c3c(-c4ccoc4)cc4c(N5CC6CC(C5)N6)nc(OCC56CCCN5CCC6)nc4c3F)ccc(F)c2s1 [Compound 194] |  | 5.00 to 6.00
12 | CN(c1nc(OCC23CCCN2CCC3)nc2c(F)c(-c3ccc(F)c4sc(N)nc34)c(C(F)(F)F)cc12)C1CN(C(=O)CN)C1 [Compound 171] |  | 5.00 to 6.00
13 | CN1CCC[C@H]1COc1nc(NC2CN(C(=O)CN)C2)c2cc(C(F)(F)F)c(-c3ccc(F)c4sc(N)nc34)c(F)c2n1 [Compound 130] |  | 5.00 to 6.00
14 | CN(c1nc(OCC23CCCN2CCC3)nc2c(F)c(-c3ccc(F)c4sc(N)nc34)c(C(F)(F)F)cc12)C1CN(C(N)=O)C1 [Compound 173] |  | 5.00 to 6.00
15 | NC(=O)N1CC(Nc2nc(OCC34CCCN3CCC4)nc3c(F)c(-c4ccc(F)c5sc(N)nc45)c(-c4ccoc4)cc23)C1 [Compound 167] |  | 4.52 to 5.00

Results, then the compound that gave them:

Row | pIC50 [1] | pIC50 [2] | Compound
16 | 5.00 to 6.00 | 6.00 to 7.00 | Nc1nc2c(-c3c(C(F)(F)F)cc4c(N5CCNCC5)nc(OC[C@@]56CCCN5C[C@H](F)C6)nc4c3F)ccc(F)c2s1 [Compound 206]
17 | 4.52 to 5.00 | 5.00 to 6.00 | Nc1nc2c(-c3c(C(F)(F)F)cc4c(N5CCNCC5)nc(OCC56CCCN5CC(F)(F)C6)nc4c3F)ccc(F)c2s1 (centres unmarked) [Compound 211]
18 | 5.00 to 6.00 | 5.00 to 6.00 | Nc1nc2c(-c3c(OC(F)(F)F)cc4c(N5CCNCC5)nc(OCC56CCCN5CCC6)nc4c3F)ccc(F)c2s1 [Compound 228, 7-fluoro-4-(8-fluoro-4-(piperazin-1-yl)-2-((tetrahydro-1H-pyrrolizin-7a(5H)-yl)methoxy)-6-(trifluoromethoxy)quinazolin-7-yl)benzo[d]thiazol-2-amine]
19 | 5.00 to 6.00 | 5.00 to 6.00 | CC(F)(F)c1cc2c(N3CCNCC3)nc(OCC34CCCN3CCC4)nc2c(F)c1-c1ccc(F)c2sc(N)nc12 [Compound 295, 4-(6-(1,1-difluoroethyl)-8-fluoro-4-(piperazin-1-yl)-2-((tetrahydro-1H-pyrrolizin-7a(5H)-yl)methoxy)quinazolin-7-yl)-7-fluorobenzo[d]thiazol-2-amine]
20 | 5.00 to 6.00 | 5.00 to 6.00 | Nc1nc2c(-c3c(Cl)cc4c(N5CCNCC5)nc(OCC56CCCN5CCC6)nc4c3F)ccc(F)c2s1 [Compound 82]
21 |  | 4.52 to 5.00 | Nc1nc2c(-c3c(C(F)(F)F)cc4c(N5CCNCC5)nc(OC[C@]56CCCN5C[C@H](F)C6)nc4c3F)ccc(F)c2s1 [Compound 169]
22 |  | 4.52 to 5.00 | Nc1nc2c(-c3c(C(F)(F)F)cc4c(N5CCNCC5)nc(OC[C@@H]5CCCN5CC(F)F)nc4c3F)ccc(F)c2s1 [Compound 172]
23 |  | 4.52 to 5.00 | Nc1nc2c(-c3c(C(F)(F)F)cc4c(N5CCNCC5)nc(OC[C@@H]5CCCN5CCF)nc4c3F)ccc(F)c2s1 [Compound 168]
